The kinase profiling compilation of Christmann-Franck et al. (2016)

Experiments:
Assay in all cases: KINOMEscan competition binding
Conditions in all cases: compound 0.5 µM
CPK1 (P.falciparum) = test system: CPK1 (P.falciparum)
[1] = test system: PIK3CA (human), P42336 [H1047L]
HIPK2 (human) = HIPK2 (human) (UniProt Q9H2X6)
CSNK1A1L (human) = CSNK1A1L (human) (UniProt Q8N752)
NTRK3 (human) = NTRK3 (human) (UniProt Q16288)
[2] = test system: KIT (human), P10721 [D816H]
PRKX (human) = PRKX (human) (UniProt P51817)
SLK (human) = SLK (human) (UniProt Q9H2G2)
PAK6 (human) = PAK6 (human) (UniProt Q9NQU5)
CDKL2 (human) = CDKL2 (human) (UniProt Q92772)
TAOK1 (human) = TAOK1 (human) (UniProt Q7L7X3)
AURKC (human) = AURKC (human) (UniProt Q9UQB9)
ULK2 (human) = ULK2 (human) (UniProt Q8IYT8)
WEE2 (human) = WEE2 (human) (UniProt P0C1S8)
MAP4K3 (human) = MAP4K3 (human) (UniProt Q8IVH8)
NEK2 (human) = NEK2 (human) (UniProt P51955)
ACVR2B (human) = ACVR2B (human) (UniProt Q13705)
[3] = test system: ABL1 (human), P00519 [Y253F]
FGFR4 (human) = FGFR4 (human) (UniProt P22455)
CHEK1 (human) = CHEK1 (human) (UniProt O14757)
LATS1 (human) = LATS1 (human) (UniProt O95835)
SIK2 (human) = SIK2 (human) (UniProt Q9H0K1)
PAK2 (human) = PAK2 (human) (UniProt Q13177)
IRAK4 (human) = IRAK4 (human) (UniProt Q9NWZ3)
CSNK1D (human) = CSNK1D (human) (UniProt P48730)
GRK1 (human) = GRK1 (human) (UniProt Q15835)
MST4 (human) = MST4 (human) (UniProt Q9P289)
PRKACA (human) = PRKACA (human) (UniProt P17612)
MAPK14 (human) = MAPK14 (human) (UniProt Q16539)
CIT (human) = CIT (human) (UniProt O14578)
TSSK1B (human) = TSSK1B (human) (UniProt Q9BXA7)
CDK4 CCND3 (human) = CDK4 CCND3 (human) (UniProt P11802+P30281)
MAP3K11 (human) = MAP3K11 (human) (UniProt Q16584)
LIMK2 (human) = LIMK2 (human) (UniProt P53671)
PKN1 (human) = PKN1 (human) (UniProt Q16512)
RPS6KA3 KD1 (human) = RPS6KA3 KD1 (human) (UniProt P51812)
IRAK3 (human) = IRAK3 (human) (UniProt Q9Y616)
INSRR (human) = INSRR (human) (UniProt P14616)
AAK1 (human) = AAK1 (human) (UniProt Q2M2I8)
ERN1 (human) = ERN1 (human) (UniProt O75460)
CDKL5 (human) = CDKL5 (human) (UniProt O76039)
TAOK3 (human) = TAOK3 (human) (UniProt Q9H2K8)

Chain of PKN1 (human) (Q16512 whole entry, looked up): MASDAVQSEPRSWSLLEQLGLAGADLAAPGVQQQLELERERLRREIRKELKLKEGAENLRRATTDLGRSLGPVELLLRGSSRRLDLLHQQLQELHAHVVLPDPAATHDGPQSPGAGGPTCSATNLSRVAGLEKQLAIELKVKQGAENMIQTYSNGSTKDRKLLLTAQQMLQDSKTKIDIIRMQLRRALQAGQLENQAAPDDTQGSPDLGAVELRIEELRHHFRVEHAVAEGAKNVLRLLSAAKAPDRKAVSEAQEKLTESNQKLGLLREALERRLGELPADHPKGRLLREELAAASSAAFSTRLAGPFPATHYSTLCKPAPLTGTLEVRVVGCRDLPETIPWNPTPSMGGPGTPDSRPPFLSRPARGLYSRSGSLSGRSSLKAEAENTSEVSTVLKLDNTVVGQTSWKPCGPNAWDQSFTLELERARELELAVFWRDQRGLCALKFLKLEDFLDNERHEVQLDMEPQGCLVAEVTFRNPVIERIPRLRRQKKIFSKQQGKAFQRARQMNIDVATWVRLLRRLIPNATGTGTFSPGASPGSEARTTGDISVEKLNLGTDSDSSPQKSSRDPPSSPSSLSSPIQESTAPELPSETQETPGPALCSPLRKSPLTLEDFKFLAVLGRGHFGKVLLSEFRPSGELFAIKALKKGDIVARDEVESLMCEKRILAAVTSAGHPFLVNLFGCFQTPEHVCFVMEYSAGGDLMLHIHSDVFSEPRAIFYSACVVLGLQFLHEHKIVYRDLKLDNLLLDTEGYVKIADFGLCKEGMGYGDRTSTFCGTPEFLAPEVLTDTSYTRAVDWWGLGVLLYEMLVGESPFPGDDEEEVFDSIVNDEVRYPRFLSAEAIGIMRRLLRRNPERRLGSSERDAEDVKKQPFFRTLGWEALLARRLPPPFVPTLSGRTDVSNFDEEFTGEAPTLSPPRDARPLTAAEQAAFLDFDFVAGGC
Chain of MAP4K3 (human) (Q8IVH8 whole entry, looked up): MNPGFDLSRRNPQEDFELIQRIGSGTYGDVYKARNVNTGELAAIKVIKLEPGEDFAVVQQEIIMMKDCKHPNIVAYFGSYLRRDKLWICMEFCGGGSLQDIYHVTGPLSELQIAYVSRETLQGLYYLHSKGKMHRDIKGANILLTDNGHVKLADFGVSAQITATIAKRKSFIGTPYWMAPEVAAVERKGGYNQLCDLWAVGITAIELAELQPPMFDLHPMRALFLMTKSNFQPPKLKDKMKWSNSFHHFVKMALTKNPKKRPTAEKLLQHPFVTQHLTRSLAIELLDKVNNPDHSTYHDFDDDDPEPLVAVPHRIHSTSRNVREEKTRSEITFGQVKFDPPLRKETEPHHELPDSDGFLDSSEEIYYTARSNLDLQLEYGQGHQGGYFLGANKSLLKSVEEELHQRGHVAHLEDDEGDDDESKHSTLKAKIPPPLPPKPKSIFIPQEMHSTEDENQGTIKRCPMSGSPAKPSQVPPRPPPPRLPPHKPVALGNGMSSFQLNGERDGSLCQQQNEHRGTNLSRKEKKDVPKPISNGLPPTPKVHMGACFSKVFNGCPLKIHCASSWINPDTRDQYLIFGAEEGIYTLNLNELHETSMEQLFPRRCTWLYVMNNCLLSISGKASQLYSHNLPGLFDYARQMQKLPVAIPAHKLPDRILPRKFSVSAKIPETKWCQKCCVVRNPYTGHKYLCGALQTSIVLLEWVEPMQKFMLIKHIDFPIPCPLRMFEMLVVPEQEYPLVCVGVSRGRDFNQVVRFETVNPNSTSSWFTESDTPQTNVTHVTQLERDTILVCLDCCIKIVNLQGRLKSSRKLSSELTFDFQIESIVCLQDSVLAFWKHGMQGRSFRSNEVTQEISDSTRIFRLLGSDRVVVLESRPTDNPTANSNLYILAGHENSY
Chain of LATS1 (human) (O95835 whole entry, looked up): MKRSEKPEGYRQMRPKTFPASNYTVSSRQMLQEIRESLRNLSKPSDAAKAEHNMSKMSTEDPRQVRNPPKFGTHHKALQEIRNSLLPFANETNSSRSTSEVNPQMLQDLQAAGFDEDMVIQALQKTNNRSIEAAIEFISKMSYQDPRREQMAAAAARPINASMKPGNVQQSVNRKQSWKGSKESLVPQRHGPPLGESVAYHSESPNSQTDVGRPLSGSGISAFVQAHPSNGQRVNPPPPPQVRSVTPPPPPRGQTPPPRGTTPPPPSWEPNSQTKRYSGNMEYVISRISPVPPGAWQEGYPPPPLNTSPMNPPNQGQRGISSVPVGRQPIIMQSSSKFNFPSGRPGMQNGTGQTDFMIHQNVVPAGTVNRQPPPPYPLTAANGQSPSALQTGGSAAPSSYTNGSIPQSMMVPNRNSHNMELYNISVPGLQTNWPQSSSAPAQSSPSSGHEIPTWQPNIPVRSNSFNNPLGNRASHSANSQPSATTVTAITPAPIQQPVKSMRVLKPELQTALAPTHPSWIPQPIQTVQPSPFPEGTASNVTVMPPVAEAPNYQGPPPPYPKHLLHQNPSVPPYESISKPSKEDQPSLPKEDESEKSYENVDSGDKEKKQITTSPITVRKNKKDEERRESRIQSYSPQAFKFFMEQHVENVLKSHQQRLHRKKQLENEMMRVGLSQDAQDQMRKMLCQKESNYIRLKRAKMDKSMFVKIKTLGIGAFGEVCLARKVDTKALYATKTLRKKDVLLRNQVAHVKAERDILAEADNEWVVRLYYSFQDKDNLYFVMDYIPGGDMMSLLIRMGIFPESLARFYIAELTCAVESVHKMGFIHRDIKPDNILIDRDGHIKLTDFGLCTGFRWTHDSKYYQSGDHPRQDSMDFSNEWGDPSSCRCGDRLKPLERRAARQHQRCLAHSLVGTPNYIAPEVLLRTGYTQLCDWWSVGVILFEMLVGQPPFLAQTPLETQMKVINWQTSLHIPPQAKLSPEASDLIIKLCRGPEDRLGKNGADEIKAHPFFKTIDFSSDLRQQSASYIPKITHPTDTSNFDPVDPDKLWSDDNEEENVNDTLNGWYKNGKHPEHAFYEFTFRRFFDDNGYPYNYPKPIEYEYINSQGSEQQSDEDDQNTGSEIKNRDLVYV
Chain of SLK (human) (Q9H2G2 whole entry, looked up): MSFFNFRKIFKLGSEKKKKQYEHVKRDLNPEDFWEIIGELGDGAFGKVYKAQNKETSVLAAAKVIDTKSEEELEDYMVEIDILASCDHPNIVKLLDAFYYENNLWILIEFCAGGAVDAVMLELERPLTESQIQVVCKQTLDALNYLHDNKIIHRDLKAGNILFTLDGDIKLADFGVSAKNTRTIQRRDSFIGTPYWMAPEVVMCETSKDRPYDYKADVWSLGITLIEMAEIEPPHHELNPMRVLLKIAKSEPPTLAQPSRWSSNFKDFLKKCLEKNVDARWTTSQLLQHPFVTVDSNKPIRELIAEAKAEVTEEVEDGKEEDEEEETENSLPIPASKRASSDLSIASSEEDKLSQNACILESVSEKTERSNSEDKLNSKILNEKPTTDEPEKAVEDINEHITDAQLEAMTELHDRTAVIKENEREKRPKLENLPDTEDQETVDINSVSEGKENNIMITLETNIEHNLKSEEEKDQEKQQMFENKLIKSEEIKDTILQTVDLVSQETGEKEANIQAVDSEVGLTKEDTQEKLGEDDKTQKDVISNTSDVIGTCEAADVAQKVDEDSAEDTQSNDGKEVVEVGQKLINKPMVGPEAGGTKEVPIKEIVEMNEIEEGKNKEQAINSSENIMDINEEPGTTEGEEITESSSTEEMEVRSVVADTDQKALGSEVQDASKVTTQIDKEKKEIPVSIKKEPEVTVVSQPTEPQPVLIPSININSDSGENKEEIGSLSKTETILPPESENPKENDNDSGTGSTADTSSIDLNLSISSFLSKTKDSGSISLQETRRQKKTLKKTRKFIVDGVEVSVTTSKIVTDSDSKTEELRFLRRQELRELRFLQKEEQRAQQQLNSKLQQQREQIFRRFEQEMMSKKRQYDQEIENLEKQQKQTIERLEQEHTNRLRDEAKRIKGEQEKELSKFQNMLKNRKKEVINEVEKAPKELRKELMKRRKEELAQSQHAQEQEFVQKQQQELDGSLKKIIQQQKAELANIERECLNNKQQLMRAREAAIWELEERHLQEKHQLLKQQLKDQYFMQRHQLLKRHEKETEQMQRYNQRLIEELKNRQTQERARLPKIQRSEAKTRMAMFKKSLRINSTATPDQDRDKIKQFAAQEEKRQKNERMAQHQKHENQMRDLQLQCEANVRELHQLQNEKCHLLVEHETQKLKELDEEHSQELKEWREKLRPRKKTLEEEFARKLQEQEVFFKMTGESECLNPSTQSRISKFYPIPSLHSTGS
Chain of IRAK4 (human) (Q9NWZ3 whole entry, looked up): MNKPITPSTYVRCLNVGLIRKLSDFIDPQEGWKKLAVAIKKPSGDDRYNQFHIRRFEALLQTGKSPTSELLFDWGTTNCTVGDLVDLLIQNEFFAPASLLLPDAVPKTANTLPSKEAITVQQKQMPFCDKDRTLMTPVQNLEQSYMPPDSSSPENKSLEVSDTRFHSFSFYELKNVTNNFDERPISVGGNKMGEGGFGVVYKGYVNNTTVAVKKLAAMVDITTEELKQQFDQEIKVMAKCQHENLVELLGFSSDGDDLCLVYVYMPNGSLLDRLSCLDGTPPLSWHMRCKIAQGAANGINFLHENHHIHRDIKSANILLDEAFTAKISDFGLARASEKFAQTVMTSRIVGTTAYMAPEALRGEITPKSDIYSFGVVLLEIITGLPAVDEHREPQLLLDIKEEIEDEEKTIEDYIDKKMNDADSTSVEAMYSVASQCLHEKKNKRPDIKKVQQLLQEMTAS
Chain of AURKC (human) (Q9UQB9 whole entry, looked up): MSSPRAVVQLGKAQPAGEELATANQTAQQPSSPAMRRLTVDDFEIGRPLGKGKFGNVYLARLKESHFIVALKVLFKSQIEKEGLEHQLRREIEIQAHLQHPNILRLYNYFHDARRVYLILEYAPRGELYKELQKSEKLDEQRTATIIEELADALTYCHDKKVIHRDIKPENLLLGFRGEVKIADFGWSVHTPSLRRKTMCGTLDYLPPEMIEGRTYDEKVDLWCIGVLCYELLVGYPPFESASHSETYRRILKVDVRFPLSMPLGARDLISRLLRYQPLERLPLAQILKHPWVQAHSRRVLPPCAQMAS

**Q.** `Cn1c2ccccc2c2c3c(c4c5ccccc5n(CCC#N)c4c21)CNC3=O` was tested. Which kinase still bound, per cent of control (CPK1 (P.falciparum)) did it give?
**A.** 35%

**Q.** What about the kinase still bound, per cent of control [1] of the same compound?
**A.** 43%

**Q.** And the kinase still bound, per cent of control (HIPK2 (human))?
**A.** 15%

**Q.** What about the kinase still bound, per cent of control (CSNK1A1L (human)) of the same compound?
**A.** 100%

**Q.** And the kinase still bound, per cent of control (NTRK3 (human))?
**A.** 0.15%

**Q.** And the kinase still bound, per cent of control [2]?
**A.** 30%

**Q.** What about the kinase still bound, per cent of control (PRKX (human)) of the same compound?
**A.** 53%

**Q.** And the kinase still bound, per cent of control (SLK (human))?
**A.** 69%

**Q.** What about the kinase still bound, per cent of control (PAK6 (human)) of the same compound?
**A.** 1.4%

**Q.** And the kinase still bound, per cent of control (CDKL2 (human))?
**A.** 26%

**Q.** What about the kinase still bound, per cent of control (TAOK1 (human)) of the same compound?
**A.** 8%

**Q.** What about the kinase still bound, per cent of control (AURKC (human)) of the same compound?
**A.** 8%

**Q.** And the kinase still bound, per cent of control (ULK2 (human))?
**A.** 86%

**Q.** And the kinase still bound, per cent of control (WEE2 (human))?
**A.** 100%

**Q.** What about the kinase still bound, per cent of control (MAP4K3 (human)) of the same compound?
**A.** 6%

**Q.** And the kinase still bound, per cent of control (NEK2 (human))?
**A.** 100%

**Q.** What about the kinase still bound, per cent of control (ACVR2B (human)) of the same compound?
**A.** 97%

**Q.** What about the kinase still bound, per cent of control [3] of the same compound?
**A.** 100%

**Q.** What about the kinase still bound, per cent of control (FGFR4 (human)) of the same compound?
**A.** 100%

**Q.** What about the kinase still bound, per cent of control (CHEK1 (human)) of the same compound?
**A.** 0.2%

**Q.** What about the kinase still bound, per cent of control (LATS1 (human)) of the same compound?
**A.** 31%

**Q.** What about the kinase still bound, per cent of control (SIK2 (human)) of the same compound?
**A.** 36%

**Q.** And the kinase still bound, per cent of control (PAK2 (human))?
**A.** 51%

**Q.** What about the kinase still bound, per cent of control (IRAK4 (human)) of the same compound?
**A.** 0.2%

**Q.** And the kinase still bound, per cent of control (CSNK1D (human))?
**A.** 81%

**Q.** And the kinase still bound, per cent of control (GRK1 (human))?
**A.** 15%

**Q.** And the kinase still bound, per cent of control (MST4 (human))?
**A.** 100%

**Q.** What about the kinase still bound, per cent of control (PRKACA (human)) of the same compound?
**A.** 100%

**Q.** What about the kinase still bound, per cent of control (MAPK14 (human)) of the same compound?
**A.** 95%

**Q.** What about the kinase still bound, per cent of control (CIT (human)) of the same compound?
**A.** 34%

**Q.** What about the kinase still bound, per cent of control (TSSK1B (human)) of the same compound?
**A.** 82%

**Q.** And the kinase still bound, per cent of control (CDK4 CCND3 (human))?
**A.** 42%

**Q.** What about the kinase still bound, per cent of control (MAP3K11 (human)) of the same compound?
**A.** 17%

**Q.** What about the kinase still bound, per cent of control (LIMK2 (human)) of the same compound?
**A.** 100%

**Q.** And the kinase still bound, per cent of control (PKN1 (human))?
**A.** 9.4%

**Q.** What about the kinase still bound, per cent of control (RPS6KA3 KD1 (human)) of the same compound?
**A.** 25%

**Q.** And the kinase still bound, per cent of control (IRAK3 (human))?
**A.** 12%

**Q.** What about the kinase still bound, per cent of control (INSRR (human)) of the same compound?
**A.** 100%

**Q.** What about the kinase still bound, per cent of control (AAK1 (human)) of the same compound?
**A.** 0.55%

**Q.** What about the kinase still bound, per cent of control (ERN1 (human)) of the same compound?
**A.** 43%

**Q.** And the kinase still bound, per cent of control (CDKL5 (human))?
**A.** 10%

**Q.** What about the kinase still bound, per cent of control (TAOK3 (human)) of the same compound?
**A.** 12%
